According to ChEMBL document CHEMBL1155906, “Structural modifications of N-arylamide oxadiazoles: Identification of N-arylpiperidine oxadiazoles as potent and selective agonists of CB2” (Bioorg Med Chem Lett, 2008):
Activity calls are given as the source filed them. The calls are words filed in the database; no cut-off is given here.

Tests used:
Cannabinoid receptor 2 [1] = target: T1, Cannabinoid receptor 2 (Homo sapiens, UniProt P34972); experiment: Agonist activity at human CB2 receptor expressed in insect Sf9 cells assessed as effect on Eu-GTP binding relative to CP-55940
T1 sequence (P34972 whole entry): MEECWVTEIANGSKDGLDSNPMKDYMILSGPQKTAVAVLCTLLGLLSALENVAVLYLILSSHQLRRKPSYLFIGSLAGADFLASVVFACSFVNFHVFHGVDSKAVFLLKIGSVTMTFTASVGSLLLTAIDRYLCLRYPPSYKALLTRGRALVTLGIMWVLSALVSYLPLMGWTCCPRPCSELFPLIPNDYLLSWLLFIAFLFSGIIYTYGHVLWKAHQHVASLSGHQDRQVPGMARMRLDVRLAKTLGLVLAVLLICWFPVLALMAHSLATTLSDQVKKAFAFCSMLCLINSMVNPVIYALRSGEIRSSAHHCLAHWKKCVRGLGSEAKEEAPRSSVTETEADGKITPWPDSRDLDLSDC

Cannabinoid receptor 1 [2] = target: T2, Cannabinoid receptor 1 (Homo sapiens, UniProt P21554); experiment: Agonist activity at human CB1 receptor expressed in insect Sf9 cells assessed as effect on Eu-GTP binding
T2 sequence (P21554 whole entry): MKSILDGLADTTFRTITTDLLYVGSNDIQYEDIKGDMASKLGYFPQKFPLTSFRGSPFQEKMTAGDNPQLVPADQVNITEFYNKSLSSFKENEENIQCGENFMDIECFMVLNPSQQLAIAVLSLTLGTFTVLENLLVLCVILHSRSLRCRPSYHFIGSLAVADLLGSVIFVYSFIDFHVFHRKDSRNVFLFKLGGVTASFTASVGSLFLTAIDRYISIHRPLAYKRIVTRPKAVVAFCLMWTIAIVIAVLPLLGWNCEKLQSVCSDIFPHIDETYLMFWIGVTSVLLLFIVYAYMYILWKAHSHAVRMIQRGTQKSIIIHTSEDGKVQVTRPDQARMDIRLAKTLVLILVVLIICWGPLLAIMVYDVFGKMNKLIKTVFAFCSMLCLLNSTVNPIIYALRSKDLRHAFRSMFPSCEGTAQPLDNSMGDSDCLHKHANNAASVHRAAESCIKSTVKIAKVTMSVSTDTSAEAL

Cannabinoid receptor 2 [3] = target: T1, Cannabinoid receptor 2; experiment: Agonist activity at human CB2 receptor expressed in insect Sf9 cells assessed as effect on Eu-GTP binding
Cannabinoid receptor 1 [4] = target: T2, Cannabinoid receptor 1; experiment: Agonist activity at human CB1 receptor expressed in insect Sf9 cells assessed as effect on Eu-GTP binding relative to CP-55940
[5] = Metabolic stability in rat liver microsome assessed as intrinsic clearance; assay type: ADME; conditions: liver microsomes
[6] = Metabolic stability in human liver microsome assessed as intrinsic clearance; assay type: ADME; conditions: liver microsomes
Cannabinoid receptor 1 [7] = target: T2, Cannabinoid receptor 1; experiment: Agonist activity at human CB1 receptor assessed as inhibition of forskolin-induced increase in intracellular cAMP relative to CP-55940; assay type: functional, cell-based
Homo sapiens = species: Homo sapiens; experiment: Selectivity for human CB2 receptor over human CB1 receptor by on Eu-GTP binding assay
Cannabinoid receptor 2 [8] = target: T1, Cannabinoid receptor 2; experiment: Agonist activity at human CB2 receptor assessed as inhibition of forskolin-induced increase in intracellular cAMP; assay type: functional, cell-based
Cannabinoid receptor 2 [9] = target: T1, Cannabinoid receptor 2; experiment: Agonist activity at human CB2 receptor assessed as inhibition of forskolin-induced increase in intracellular cAMP relative to CP-55940; assay type: functional, cell-based
Cannabinoid receptor 1 [10] = target: T2, Cannabinoid receptor 1; experiment: Agonist activity at human CB1 receptor assessed as inhibition of forskolin-induced increase in intracellular cAMP; assay type: functional, cell-based
Cannabinoid receptor 2 [11] = target: T1, Cannabinoid receptor 2; experiment: Agonist activity at human CB2 receptor expressed in insect Sf9 cells assessed as effect on Eu-GTP binding at 10 uM
Cannabinoid receptor 1 [12] = target: T2, Cannabinoid receptor 1; experiment: Agonist activity at human CB1 receptor expressed in insect Sf9 cells assessed as effect on Eu-GTP binding at 10 uM
[13] = Clearance in iv dosed rat; assay type: ADME, organism-based; conditions: in vivo

SMILES: Clc1ccc(-c2noc(C3CCN(c4cnc5ccccc5c4)CC3)n2)cc1
- Emax (Cannabinoid receptor 2 [1]): 26%
- EC50 (Cannabinoid receptor 1 [2]): 2620 nM
- EC50 (Cannabinoid receptor 2 [3]): 1780 nM
- Emax (Cannabinoid receptor 1 [4]): 26%

SMILES: Fc1ccc(-c2noc(C[C@H]3CCN(c4cnc5ccccc5c4)C3)n2)c(Cl)c1
- microsomal CLint [5]: 579 µL/min/mg
- microsomal CLint [6]: 215 µL/min/mg
- Emax (Cannabinoid receptor 2 [1]): 109%
- EC50 (Cannabinoid receptor 1 [2]): 1690 nM
- EC50 (Cannabinoid receptor 2 [3]): 140 nM
- Emax (Cannabinoid receptor 1 [4]): 24%

SMILES: Fc1ccc(-c2noc(C3CCN(c4cnc5c(C(F)(F)F)cccc5c4)CC3)n2)c(Cl)c1
- microsomal CLint [5]: 54 µL/min/mg
- microsomal CLint [6]: 23 µL/min/mg
- Emax (Cannabinoid receptor 2 [1]): 106%
- EC50 (Cannabinoid receptor 1 [2]): 15 nM
- EC50 (Cannabinoid receptor 2 [3]): 16 nM
- Emax (Cannabinoid receptor 1 [4]): 34%

SMILES: Clc1ccc(-c2noc(C3CCN(c4cnc5ccccc5c4)CC3)n2)c(Cl)c1
- microsomal CLint [5]: 43 µL/min/mg
- microsomal CLint [6]: 58 µL/min/mg
- Emax (Cannabinoid receptor 2 [1]): 99%
- EC50 (Cannabinoid receptor 1 [2]): 951 nM
- EC50 (Cannabinoid receptor 2 [3]): 80 nM
- Emax (Cannabinoid receptor 1 [4]): 27%

SMILES: CC(C)(CCc1nc(-c2ccc(F)cc2Cl)no1)Nc1cnc2ccccc2c1
- Emax (Cannabinoid receptor 1 [7]): 46%
- microsomal CLint [5]: 775 µL/min/mg
- microsomal CLint [6]: 429 µL/min/mg
- Selectivity (Homo sapiens): > 200
- EC50 (Cannabinoid receptor 2 [8]): 50 nM
- Emax (Cannabinoid receptor 2 [9]): 93%
- Emax (Cannabinoid receptor 2 [1]): 52%
- EC50 (Cannabinoid receptor 1 [2]): 1300 nM
- EC50 (Cannabinoid receptor 2 [3]): 53 nM
- Emax (Cannabinoid receptor 1 [4]): 70%
- EC50 (Cannabinoid receptor 1 [10]): > 2000 nM

SMILES: O=C(O)CCc1nc(-c2ccc(F)cc2Cl)no1
- Activity (Cannabinoid receptor 2 [11]): inactive
- Selectivity (Homo sapiens): > 200
- Emax (Cannabinoid receptor 2 [1]): 10%
- Activity (Cannabinoid receptor 1 [12]): inactive
- Emax (Cannabinoid receptor 1 [4]): 0.3%

SMILES: c1ccc2ncc(N3CCC(c4nc(-c5ccncc5)no4)CC3)cc2c1
- Emax (Cannabinoid receptor 2 [1]): 53%
- Activity (Cannabinoid receptor 1 [12]): inactive
- EC50 (Cannabinoid receptor 2 [3]): 313 nM
- Emax (Cannabinoid receptor 1 [4]): 8%

SMILES: Fc1ccc(-c2noc(CCCNc3cnc4ccccc4c3)n2)c(Cl)c1
- microsomal CLint [5]: 614 µL/min/mg
- microsomal CLint [6]: 179 µL/min/mg
- Selectivity (Homo sapiens): > 200
- Emax (Cannabinoid receptor 2 [1]): 104%
- EC50 (Cannabinoid receptor 1 [2]): 472 nM
- EC50 (Cannabinoid receptor 2 [3]): 11 nM
- Emax (Cannabinoid receptor 1 [4]): 103%

SMILES: Fc1ccc(-c2noc(C3CCN(c4ccc(Cl)c(C(F)(F)F)c4)CC3)n2)c(Cl)c1
- Emax (Cannabinoid receptor 2 [1]): 93%
- Activity (Cannabinoid receptor 1 [12]): inactive
- EC50 (Cannabinoid receptor 2 [3]): 376 nM
- Emax (Cannabinoid receptor 1 [4]): 2%

SMILES: CC1(C)CCCc2cc(N3CCC(c4nc(-c5ccc(F)cc5Cl)no4)CC3)cnc21
- microsomal CLint [5]: > 399 µL/min/mg
- microsomal CLint [6]: 380 µL/min/mg
- Emax (Cannabinoid receptor 2 [1]): 108%
- EC50 (Cannabinoid receptor 1 [2]): 722 nM
- EC50 (Cannabinoid receptor 2 [3]): 32 nM
- Emax (Cannabinoid receptor 1 [4]): 93%

SMILES: Fc1ccc(-c2noc([C@@H]3CCC[C@H]3Nc3cnc4ccccc4c3)n2)c(Cl)c1 (racemic)
- Emax (Cannabinoid receptor 2 [1]): 73%
- EC50 (Cannabinoid receptor 1 [2]): 2230 nM
- EC50 (Cannabinoid receptor 2 [3]): 465 nM
- Emax (Cannabinoid receptor 1 [4]): 39%

SMILES: Fc1ccc(-c2noc(C3CCN(c4cnc5ccc(OC(F)(F)F)cc5c4)CC3)n2)c(Cl)c1
- microsomal CLint [5]: 18 µL/min/mg
- microsomal CLint [6]: 28 µL/min/mg
- Emax (Cannabinoid receptor 2 [1]): 110%
- EC50 (Cannabinoid receptor 1 [2]): 419 nM
- EC50 (Cannabinoid receptor 2 [3]): 3 nM
- Emax (Cannabinoid receptor 1 [4]): 33%

SMILES: c1ccc2ncc(N3CCC(c4nc(C5CCCCC5)no4)CC3)cc2c1
- microsomal CLint [5]: 185 µL/min/mg
- microsomal CLint [6]: 283 µL/min/mg
- Emax (Cannabinoid receptor 2 [1]): 113%
- EC50 (Cannabinoid receptor 1 [2]): 600 nM
- EC50 (Cannabinoid receptor 2 [3]): 26 nM
- Emax (Cannabinoid receptor 1 [4]): 105%

SMILES: Fc1ccc(-c2noc(C3CCN(c4ccnc5ccccc45)CC3)n2)c(Cl)c1
- Emax (Cannabinoid receptor 2 [1]): 35%
- Activity (Cannabinoid receptor 1 [12]): inactive
- EC50 (Cannabinoid receptor 2 [3]): 2860 nM
- Emax (Cannabinoid receptor 1 [4]): 2%

SMILES: Fc1ccc(-c2noc(C3CCN(c4cnc5ccccc5c4)CC3)n2)c(Cl)c1
- Emax (Cannabinoid receptor 1 [7]): 17%
- microsomal CLint [5]: 80 µL/min/mg
- microsomal CLint [6]: 92 µL/min/mg
- EC50 (Cannabinoid receptor 2 [8]): 17 nM
- Emax (Cannabinoid receptor 2 [9]): 95%
- Emax (Cannabinoid receptor 2 [1]): 101%
- EC50 (Cannabinoid receptor 1 [2]): 3030 nM
- EC50 (Cannabinoid receptor 2 [3]): 89 nM
- Emax (Cannabinoid receptor 1 [4]): 36%
- EC50 (Cannabinoid receptor 1 [10]): > 1000 nM

SMILES: Fc1ccc(-c2noc([C@H]3CC[C@@H](Nc4cnc5ccccc5c4)C3)n2)c(Cl)c1 (racemic)
- Emax (Cannabinoid receptor 2 [1]): 77%
- Activity (Cannabinoid receptor 1 [12]): inactive
- EC50 (Cannabinoid receptor 2 [3]): 1600 nM
- Emax (Cannabinoid receptor 1 [4]): 4%

SMILES: CC(C)c1noc(C2CCN(c3cnc4ccccc4c3)CC2)n1
- Emax (Cannabinoid receptor 2 [1]): 38%
- Activity (Cannabinoid receptor 1 [12]): inactive
- EC50 (Cannabinoid receptor 2 [3]): 1440 nM
- Emax (Cannabinoid receptor 1 [4]): 8%

SMILES: Clc1cnccc1-c1noc(C2CCN(c3cnc4ccccc4c3)CC2)n1
- microsomal CLint [5]: 187 µL/min/mg
- microsomal CLint [6]: 251 µL/min/mg
- Emax (Cannabinoid receptor 2 [1]): 103%
- EC50 (Cannabinoid receptor 1 [2]): 96 nM
- EC50 (Cannabinoid receptor 2 [3]): 24 nM
- Emax (Cannabinoid receptor 1 [4]): 23%

SMILES: O=C(CCc1nc(-c2ccc(F)cc2Cl)no1)Nc1cnc2ccccc2c1
- Emax (Cannabinoid receptor 1 [7]): 49%
- microsomal CLint [5]: 126 µL/min/mg
- clearance [13]: 95 mL/min/kg
- microsomal CLint [6]: 49 µL/min/mg
- Selectivity (Homo sapiens): > 200
- EC50 (Cannabinoid receptor 2 [8]): 5 nM
- Emax (Cannabinoid receptor 2 [9]): 98%
- Emax (Cannabinoid receptor 2 [1]): 115%
- EC50 (Cannabinoid receptor 1 [2]): 403 nM
- EC50 (Cannabinoid receptor 2 [3]): 2 nM
- Emax (Cannabinoid receptor 1 [4]): 51%
- EC50 (Cannabinoid receptor 1 [10]): 559 nM

SMILES: O=C(NCCc1nc(-c2ccc(F)cc2Cl)no1)c1cnc2ccccc2c1
- Selectivity (Homo sapiens): > 200
- Emax (Cannabinoid receptor 2 [1]): 87%
- Activity (Cannabinoid receptor 1 [12]): inactive
- EC50 (Cannabinoid receptor 2 [3]): 1550 nM
- Emax (Cannabinoid receptor 1 [4]): -1%

SMILES: CC(C)n1ccc2cc(N3CCC(c4nc(-c5ccc(F)cc5Cl)no4)CC3)cnc21
- Emax (Cannabinoid receptor 2 [1]): 88%
- Activity (Cannabinoid receptor 1 [12]): inactive
- EC50 (Cannabinoid receptor 2 [3]): 340 nM
- Emax (Cannabinoid receptor 1 [4]): 13%

SMILES: Fc1ccc(-c2noc([C@H]3C[C@@H]3CNc3cnc4ccccc4c3)n2)c(Cl)c1 (racemic)
- Emax (Cannabinoid receptor 1 [7]): 1%
- microsomal CLint [5]: 193 µL/min/mg
- microsomal CLint [6]: 69 µL/min/mg
- EC50 (Cannabinoid receptor 2 [8]): > 2000 nM
- Emax (Cannabinoid receptor 2 [9]): 0%
- Emax (Cannabinoid receptor 2 [1]): 110%
- Activity (Cannabinoid receptor 1 [12]): inactive
- EC50 (Cannabinoid receptor 2 [3]): 99 nM
- Emax (Cannabinoid receptor 1 [4]): 8%
- EC50 (Cannabinoid receptor 1 [10]): > 2000 nM

SMILES: CC(CCc1nc(-c2ccc(F)cc2Cl)no1)Nc1cnc2ccccc2c1 (racemic)
- microsomal CLint [5]: > 399 µL/min/mg
- microsomal CLint [6]: 142 µL/min/mg
- Selectivity (Homo sapiens): > 200
- Emax (Cannabinoid receptor 2 [1]): 112%
- EC50 (Cannabinoid receptor 1 [2]): 1560 nM
- EC50 (Cannabinoid receptor 2 [3]): 15 nM
- Emax (Cannabinoid receptor 1 [4]): 69%

SMILES: Fc1ccc(-c2noc(C3CCN(c4cnc5c(c4)CCCC5)CC3)n2)c(Cl)c1
- microsomal CLint [5]: 130 µL/min/mg
- microsomal CLint [6]: 95 µL/min/mg
- Emax (Cannabinoid receptor 2 [1]): 113%
- EC50 (Cannabinoid receptor 1 [2]): 910 nM
- EC50 (Cannabinoid receptor 2 [3]): 19 nM
- Emax (Cannabinoid receptor 1 [4]): 60%

SMILES: Fc1ccccc1-c1noc(C2CCN(c3cnc4ccccc4c3)CC2)n1
- Emax (Cannabinoid receptor 2 [1]): 89%
- Activity (Cannabinoid receptor 1 [12]): inactive
- EC50 (Cannabinoid receptor 2 [3]): 1550 nM
- Emax (Cannabinoid receptor 1 [4]): 8%

SMILES: Fc1ccc(-c2noc(C[C@@H]3CCN(c4cnc5ccccc5c4)C3)n2)c(Cl)c1
- Emax (Cannabinoid receptor 1 [7]): 3%
- microsomal CLint [5]: 426 µL/min/mg
- microsomal CLint [6]: 215 µL/min/mg
- EC50 (Cannabinoid receptor 2 [8]): > 2000 nM
- Emax (Cannabinoid receptor 2 [9]): 23%
- Emax (Cannabinoid receptor 2 [1]): 116%
- EC50 (Cannabinoid receptor 1 [2]): 1270 nM
- EC50 (Cannabinoid receptor 2 [3]): 86 nM
- Emax (Cannabinoid receptor 1 [4]): 46%
- EC50 (Cannabinoid receptor 1 [10]): > 2000 nM
